pIC50: −log10 of the molar value. Read-outs that look alike come from different tables or passages of the source.
Experiments:
[1] = system: carrageenin-induced mouse paw edema; assay: Carrageenin-induced mouse paw edema (CPE), in vivo anti-inflammatory activity; conditions: for inhibition in vivo at 10 µmol/kg: Mus musculus, ip, mice, 0.01 mmol/kg body weight intraperitoneally, given simultaneously with carrageenin (2%, 0.05 mL); for increased anti-inflammatory activity compared to indomethacin: carrageenin paw edema, relative to indomethacin
Description: The in vivo anti-inflammatory effect of the tested compounds was assessed by using the functional model of carrageenin-induced mouse paw edema and is presented as the percentage of inhibition of induction of edema at the right hind paw (Table 1).
Edema was measured by weight increase of the right hind paw in comparison to the […] left paw.
Twenty-five thiazolo[3,2-b]1,2,4-triazole derivatives, previously synthesized were evaluated for their anti-inflammatory activity, in vivo using groups of 6–10 mice of R’’’ strain.
The anti-inflammatory activity of the compounds synthesized was studied with the Carragenin-Induced Paw Edema acute inflammation test using an aqueous carrageenin solution (2%, 0,05 mL), [14] which was injected intradermally in the footpad of the right hind limb muscle (mice R’’’ groups of 6–10 animals), whereas the left end serves as a reference. In the experimental procedure both sex male mice were used, excluding pregnant. Animals were fasted during the time of the experiment. The tested compounds (0.01 mmol/kg body weight), were suspended in water, with few drops of Tween 80 and ground in a mortar before use and were given intraperitoneally simultaneously with the carrageenin injection.

[2] = biological target: T1, ovine COX-1 (Ovis aries, UniProt P05979); assay: COX inhibitor screening assay in vitro, COX-1; assay type: biochemical; conditions: for inhibition at 200 µM: read-out: COX-1 (%) inhibition
T1 construct: purchased Cayman Chemical Co., Ann Arbor, MI, USA
T1 sequence (P05979 25-600): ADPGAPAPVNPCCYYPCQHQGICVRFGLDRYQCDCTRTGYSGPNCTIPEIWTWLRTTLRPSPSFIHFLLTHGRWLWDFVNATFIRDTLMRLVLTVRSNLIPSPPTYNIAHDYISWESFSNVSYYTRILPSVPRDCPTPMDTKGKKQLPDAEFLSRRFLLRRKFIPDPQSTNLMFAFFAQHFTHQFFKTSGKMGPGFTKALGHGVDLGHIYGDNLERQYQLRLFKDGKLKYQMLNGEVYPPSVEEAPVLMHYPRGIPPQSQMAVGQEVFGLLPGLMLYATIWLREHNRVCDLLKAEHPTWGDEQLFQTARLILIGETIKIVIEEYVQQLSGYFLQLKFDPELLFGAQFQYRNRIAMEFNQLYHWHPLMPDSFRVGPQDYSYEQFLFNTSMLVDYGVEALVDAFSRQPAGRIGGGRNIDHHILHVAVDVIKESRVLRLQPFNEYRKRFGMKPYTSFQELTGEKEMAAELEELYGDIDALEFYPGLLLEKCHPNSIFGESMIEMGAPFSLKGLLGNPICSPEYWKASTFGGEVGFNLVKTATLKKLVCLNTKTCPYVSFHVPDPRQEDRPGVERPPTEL
Description: (§1) The COX-1 and COX-2 activities of the compounds were measured using ovine COX-1 and human recombinant COX-2 enzymes included in the “COX I inhibitor Screening Assay” kit provided by Cayman (Cayman Chemical Co., Ann Arbor, MI, USA). The assay directly measures PGF2 a produced by SnCl2 reduction of COX-derived PGH2. The prostanoid production was quantified via enzyme immunoassay using a broadly specific antibody that binds to all the major prostaglandin compounds. […]

[3] = biological target: T2, human recombinant COX-2 (Homo sapiens, UniProt P35354); assay: COX inhibitor screening assay in vitro, COX-2; assay type: biochemical; conditions: for inhibition at 200 µM: read-out: COX-2 (%) inhibition
T2 construct: purchased Cayman Chemical Co., Ann Arbor, MI, USA
T2 sequence (P35354 18-604): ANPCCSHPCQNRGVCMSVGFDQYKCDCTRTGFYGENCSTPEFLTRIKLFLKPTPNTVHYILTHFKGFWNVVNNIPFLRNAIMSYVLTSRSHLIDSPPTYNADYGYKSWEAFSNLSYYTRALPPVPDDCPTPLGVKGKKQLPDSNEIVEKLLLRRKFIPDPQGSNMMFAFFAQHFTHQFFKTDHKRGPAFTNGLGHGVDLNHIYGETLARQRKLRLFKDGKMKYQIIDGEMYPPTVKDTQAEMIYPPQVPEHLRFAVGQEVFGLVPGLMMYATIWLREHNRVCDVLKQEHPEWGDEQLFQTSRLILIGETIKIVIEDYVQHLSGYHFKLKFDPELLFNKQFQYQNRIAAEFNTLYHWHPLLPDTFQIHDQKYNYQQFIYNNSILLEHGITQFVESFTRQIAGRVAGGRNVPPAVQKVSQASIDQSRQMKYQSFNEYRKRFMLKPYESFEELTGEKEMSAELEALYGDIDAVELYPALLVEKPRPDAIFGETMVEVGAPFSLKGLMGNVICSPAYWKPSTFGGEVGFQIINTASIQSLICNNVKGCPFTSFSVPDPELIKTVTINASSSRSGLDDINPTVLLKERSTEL
Description: as §1

[4] = biological target: T3, soybean lipoxygenase (Glycine max, UniProt P08170); assay: Soybean lipoxygenase inhibition in vitro; assay type: biochemical; conditions: 0.1 mM sodium linoleate, 234 nm
T3 sequence (P08170 1-839): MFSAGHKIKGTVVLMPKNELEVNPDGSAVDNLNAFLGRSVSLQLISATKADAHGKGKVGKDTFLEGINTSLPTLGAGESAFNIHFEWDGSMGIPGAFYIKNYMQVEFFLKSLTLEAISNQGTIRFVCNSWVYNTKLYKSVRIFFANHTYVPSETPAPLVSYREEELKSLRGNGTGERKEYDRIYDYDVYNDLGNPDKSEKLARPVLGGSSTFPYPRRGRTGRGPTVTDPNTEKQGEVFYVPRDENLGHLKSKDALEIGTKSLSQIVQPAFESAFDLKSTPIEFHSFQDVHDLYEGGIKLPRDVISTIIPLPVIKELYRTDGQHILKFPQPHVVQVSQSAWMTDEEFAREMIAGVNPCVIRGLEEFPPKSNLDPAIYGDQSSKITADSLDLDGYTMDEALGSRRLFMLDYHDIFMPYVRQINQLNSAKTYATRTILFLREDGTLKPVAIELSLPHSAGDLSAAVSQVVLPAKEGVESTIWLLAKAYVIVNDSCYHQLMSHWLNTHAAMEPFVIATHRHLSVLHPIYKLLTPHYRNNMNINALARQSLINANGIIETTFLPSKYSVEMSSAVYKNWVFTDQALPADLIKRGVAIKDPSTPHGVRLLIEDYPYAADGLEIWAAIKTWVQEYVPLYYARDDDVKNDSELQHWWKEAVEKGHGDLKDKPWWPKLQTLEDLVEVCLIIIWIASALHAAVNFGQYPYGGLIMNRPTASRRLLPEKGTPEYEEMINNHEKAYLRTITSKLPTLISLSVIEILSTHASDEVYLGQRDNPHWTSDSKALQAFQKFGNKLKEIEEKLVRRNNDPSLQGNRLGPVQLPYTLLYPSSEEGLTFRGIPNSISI
Description: The compounds tested were dissolved in DMSO and preincubated for 4 min at 28 °C in the presence of 753 U/mL 5-soybean lipoxygenase (5-LOX). The enzyme reaction was triggered by addition of a final concentration of 0.1 mM sodium linoleate. The conversion of sodium linoleate 13-hydrouperoxylinoleic acid was measured at 234 nm. Absorbance was measured at time 0 and 3 min.

[5] = at 200 μM, 0.1 μM arachidonic acid

inhibition at 200 µM [2, 5] [%]	inhibition at 200 µM [3, 5] [%]	LOX (%) inhibition [4] [%]	Structure (SMILES)	inhibition in vivo at 10 µmol/kg [1] [%]	also measured
			O=c1/c(=C/c2ccccc2)sc2nc(C34CC5CC(CC(C5)C3)C4)nn12 [Compound 1]	40 to 49	
18	64	5.82	O=c1/c(=C/c2cccc(O)c2)sc2nc(C34CC5CC(CC(C5)C3)C4)nn12 [Compound 2]	36	pIC50 [3]: < 4.30
93	25	28.58	O=c1/c(=C/c2ccc(O)cc2)sc2nc(C34CC5CC(CC(C5)C3)C4)nn12 [Compound 3]	37	COX-1 IC50 fold lower than that of naproxen [2]: 30 fold; pIC50 [2]: 5.89
			O=c1/c(=C/c2ccc(O)cc2O)sc2nc(C34CC5CC(CC(C5)C3)C4)nn12 [Compound 4]	40 to 49	
			COc1cccc(/C=c2\sc3nc(C45CC6CC(CC(C6)C4)C5)nn3c2=O)c1O [Compound 5]	51 to 67	increased anti-inflammatory activity compared to indomethacin [1]: 23%
26.2	66	6.67	COc1cc(/C=c2\sc3nc(C45CC6CC(CC(C6)C4)C5)nn3c2=O)ccc1O [Compound 6]	40 to 49	pIC50 [3]: < 4.30
22	25	16.13	COc1cc(/C=c2\sc3nc(C45CC6CC(CC(C6)C4)C5)nn3c2=O)cc(OC)c1O [Compound 7]	36	
60.5	0	5.72	COc1ccc(/C=c2\sc3nc(C45CC6CC(CC(C6)C4)C5)nn3c2=O)cc1 [Compound 8]	51 to 67	increased anti-inflammatory activity compared to indomethacin [1]: 32%; pIC50 [2]: 4.38; COX-2 (%) inhibition [3, 5]: completely inactive
			COc1ccc(/C=c2\sc3nc(C45CC6CC(CC(C6)C4)C5)nn3c2=O)cc1OC [Compound 9]	40 to 49	
			COc1cc(/C=c2\sc3nc(C45CC6CC(CC(C6)C4)C5)nn3c2=O)cc(OC)c1OC [Compound 10]	40 to 49	
			CN(C)c1ccc(/C=c2\sc3nc(C45CC6CC(CC(C6)C4)C5)nn3c2=O)cc1 [Compound 11]	51 to 67	
			O=c1/c(=C/c2ccccc2[N+](=O)[O-])sc2nc(C34CC5CC(CC(C5)C3)C4)nn12 [Compound 12]	40 to 49	
			O=c1/c(=C/c2cccc([N+](=O)[O-])c2)sc2nc(C34CC5CC(CC(C5)C3)C4)nn12 [Compound 13]	15	
			O=c1/c(=C/c2ccc([N+](=O)[O-])cc2)sc2nc(C34CC5CC(CC(C5)C3)C4)nn12 [Compound 14]	40 to 49	
36	23	27.15	O=c1/c(=C/c2cccc(F)c2)sc2nc(C34CC5CC(CC(C5)C3)C4)nn12 [Compound 15]	51 to 67	
19	0	16.13	O=c1/c(=C/c2ccc(F)cc2)sc2nc(C34CC5CC(CC(C5)C3)C4)nn12 [Compound 16]	51 to 67	
16	0	17.15	O=c1/c(=C/c2ccccc2Br)sc2nc(C34CC5CC(CC(C5)C3)C4)nn12 [Compound 17]	51 to 67	
0	37	31.43	O=c1/c(=C/c2cccc(Br)c2)sc2nc(C34CC5CC(CC(C5)C3)C4)nn12 [Compound 18]	51 to 67	
16	36	8.07	O=c1/c(=C/c2ccc(Br)cc2)sc2nc(C34CC5CC(CC(C5)C3)C4)nn12 [Compound 19]	51 to 67	
			O=c1/c(=C/c2ccccc2Cl)sc2nc(C34CC5CC(CC(C5)C3)C4)nn12 [Compound 20]	40 to 49	
			O=c1/c(=C/c2cccc(Cl)c2)sc2nc(C34CC5CC(CC(C5)C3)C4)nn12 [Compound 21]	40 to 49	
			O=c1/c(=C/c2ccc(Cl)cc2)sc2nc(C34CC5CC(CC(C5)C3)C4)nn12 [Compound 22]	51 to 67	
46	20	11.43	O=c1/c(=C/c2cccc(Cl)c2Cl)sc2nc(C34CC5CC(CC(C5)C3)C4)nn12 [Compound 23]	37	
			O=c1/c(=C/c2ccc(Cl)cc2Cl)sc2nc(C34CC5CC(CC(C5)C3)C4)nn12 [Compound 24]	37	
			O=c1/c(=C/c2c(Cl)cccc2Cl)sc2nc(C34CC5CC(CC(C5)C3)C4)nn12 [Compound 25]	32	
			COc1ccc2cc([C@H](C)C(=O)O)ccc2c1 [Naproxen, reference compound]		inhibition at 200 µM [2]: 60%; inhibition at 200 µM [3]: 65%

Reference: publication PMC7866232, “New Substituted 5-Benzylideno-2-Adamantylthiazol[3,2-b][1,2,4]Triazol-6(5H)ones as Possible Anti-Inflammatory Agents” (Molecules, 2021)
